Reference: patent US11000587B2, “Use as immune enhancer or pharmaceutical composition for treatment of dementia, comprising phytosphingosine-1-phosphate or derivative thereof” (AXCESO BIOPHARMA CO., LTD., priority 2016, dated 2021)

What was measured:
Aβ antigen [1] = assay: Antibody-forming ability in vaccinated mice, total IgG titer (ELISA); format: in vivo, Balb/c mice; conditions: vaccine with Aβ antigen, intramuscular
Protocol: (§1) The mice were inoculated with the vaccines prepared as described above. 6-week-old Balb/c mice were used in the experiment, and there were 4 mice per group. The mice were injected intramuscularly with the vaccines prepared containing PBS, Alum, S1P (EB101), P1P, cyclic P1P, and NAPS-1-P as described above. […] The vaccine candidates were inoculated twice at an interval of 3 weeks. PBS was used as a negative control without Aβ antigen, and S1P and Alum were used as control. Alum is an adjuvant used in vaccines and is known to induce a Th2 immune response, and thus was used as a positive control for the Th2 response, and S1P was used as a control for comparison of antibody producing-ability.
The antibody-forming ability in the serum was determined as follows:
A 96-well plate was coated with Aβ antigen (1 μg/mL) and reacted at room temperature overnight. Then, the solution in each well was removed and blocked with albumin. The primary antibody (the immune serum) was subjected to 2-fold dilution with the following composition solution (0.014 M sodium phosphate, pH 7.4, 0.15 M NaCl, 0.6% albumin, 0.05% thimerosal) and added to each well. After reacting at room temperature for about 1 hour, the antibodies were washed 5 times with PBS containing 0.05% Tween 20. Subsequently, a secondary antibody conjugated to horseradish peroxidase (goat mouse IgG conjugated to horseradish peroxidase, Boehringer Mannheim) was added and reacted at room temperature for 1 hour. After washing 5 times with PBS containing Tween, 100 μL of 3,3,5,5-tetramethyl benzidine (from Pierce Chemicals) was added for color development, and reacted at room temperature for 15 minutes. The color development reaction was terminated by adding sulfuric acid.

TNF-α = assay: Th1 cytokine (TNF-α) from splenocytes of inoculated mice re-stimulated with Aβ antigen; format: in vivo; conditions: for TNF-α: splenocytes of vaccinated mice, re-stimulated with Aβ antigen 72 hours
Protocol: as §1
(§2) The spleen was removed from the mice inoculated as described above to obtain splenocytes. Red blood cells were lysed with 100 mM Tris buffer. The obtained splenocytes were washed twice with PBS and centrifuged at 1600 rpm for 5 minutes. […] The splenocytes thus obtained were re-stimulated with a constant amount of Aβ antigen for 72 hours.
(§3) Subsequently, Th1 cytokine (TNF-α) and Th2 cytokine (IL-4) secreted from the mouse splenocytes were subjected to an ELISpot assay using an ELISPOT (BD Pharmingen) kit according to the manufacturer's instructions. The number of colored spots was measured to compare the number of cytokine-secreting cells.

Aβ antigen [2] = assay: IgG isotyping (IgG1, IgG2a, IgG2b titer) in vaccinated mice; format: in vivo, Balb/c mice; conditions: blood collected at 4th week after the second vaccination
Protocol: as §1
In the fourth week, which was the last week, about 300 to 400 μl of blood was collected from the heart, and the serum components were separated by centrifugation at 1400 rpm for 10 minutes at room temperature. The antibody-forming ability in the serum was determined as follows:
The IgG isotyping was measured in the same manner as the total IgG measurement except that the following antibodies were used as secondary antibodies. For IgG1, IgG2a and IgG2b, anti-mouse IgG1, IgG2a or IgG2b conjugated to horseradish peroxidase (Boehringer Mannheim) were used.

PC12 cell = assay: Protection against neuronal cell death induced by hydrogen peroxide (oxidative stress), Ez-Cytox viability; format: cell-based, Mouse; conditions: 100 nM, 350 μM hydrogen peroxide (about 90% of nerve cells killed without treatment)
Protocol: PC12 cell line (KCLB 21721, Korea Cell Line Bank, Seoul, Korea) was used to test the effect of P1P and the antibodies on the neuronal cell death caused by hydrogen peroxide and Aβ. The PC12 cells were cultured in RPMI 1640 medium containing 10% fetal bovine serum and 1% penicillin/streptomycin at 37° C. in a 5% CO2 incubator.
After culturing the cells for 24 hours, P1P, cyclic P1P and NAPS-1-P dissolved in DMSO to a concentration of 2 mM were diluted and added to the medium such that the concentrations were 10 nM, 100 nM and 1000 nM. After culturing for 1 hour, 350 μM of H2O2 was added to […] and cultured. Subsequently, in order to measure cell viability, the absorbance was measured at 450 nm using Ez-Cytox (Dogen) after 6 hours, and the efficacy of P1P and derivatives thereof against oxidative stress was measured. The cell death induced by Aβ was initiated by treating 10 μM of Aβ instead of 350 μM of hydrogen peroxide, and the efficacy of P1P and the antibodies against the cell death induced by Aβ was measured using Ez-Cytox after 24 hours.

IL-4 = assay: Th2 cytokine (IL-4) from splenocytes of inoculated mice re-stimulated with Aβ antigen; format: in vivo; conditions: for IL-4: splenocytes of vaccinated mice, re-stimulated with Aβ antigen 72 hours
Protocol: as §1, §2, §3

Raw264.7 cells = assay: TNF-α production in LPS-stimulated macrophages (ELISA); format: cell-based, mouse; conditions: LPS 1 ng/mL; for Amount of TNF-α / inhibition at 0.01 µM / inhibition at 0.1 µM / inhibition at 0.5 µM / inhibition at 1 µM: 4 hours; for inhibition at 0.01 µM / inhibition at 0.1 µM / inhibition at 0.5 µM / inhibition at 1 µM: Mus musculus, RAW264.7, 4 h, read-out: Inhibition rate of TNF-α production
Protocol: Raw264.7 cells, which is a mouse macrophage cell line (Korean Cell Line Bank, cultured with RPMI 1640/10% fetal bovine serum) were seeded at 4.5×10^5/mL and cultured overnight, and then, treated with LPS (lipopolysaccharide) (1 ng/mL), and S1P and P1P diluted with a culture medium according to the concentrations ([…]). After culturing at 37° C. in a 5% CO2 incubator for 4 hours, the supernatant was collected and stored at 4° C. The concentration of TNF-α, an inflammatory cytokine secreted in the supernatant, was measured using an ELISA kit (BD OptEIA™ TNF Mouse set) according to the manufacturer's instructions. The culture medium was diluted by ¼ in all experimental groups except for the treated group, and the concentration was measured.

[3] = 2 weeks after secondary inoculation
[4] = 3 weeks after primary inoculation
[5] = 4 weeks after secondary inoculation

| Compound | Average Antibody Titer (Aβ antigen [1]; [3]) | Average Antibody Titer (Aβ antigen [1]; [4]) | Average Antibody Titer (Aβ antigen [1]; [5]) | Average Antibody Titer (Aβ antigen [1]; Before inoculation) | TNF-α (TNF-α) [pg/mL] | IgG1 Average Antibody Titer (Aβ antigen [2]) | IgG2a Average Antibody Titer (Aβ antigen [2]) | IgG2b Average Antibody Titer (Aβ antigen [2]) | neuronal cell death induced by hydrogen peroxide (PC12 cell) | IL-4 (IL-4) [pg/mL] | Amount of TNF-α (Raw264.7 cells; 10 nM) [pg/mL] | Amount of TNF-α (Raw264.7 cells; 100 nM) [pg/mL] | Amount of TNF-α (Raw264.7 cells; 500 nM) [pg/mL] | Amount of TNF-α (Raw264.7 cells; 1000 nM) [pg/mL] | inhibition at 0.01 µM (Raw264.7 cells; 10 nM) [%] | inhibition at 0.1 µM (Raw264.7 cells; 100 nM) [%] | inhibition at 0.5 µM (Raw264.7 cells; 500 nM) [%] | inhibition at 1 µM (Raw264.7 cells; 1000 nM) [%] | further results |
| --- | --- | --- | --- | --- | --- | --- | --- | --- | --- | --- | --- | --- | --- | --- | --- | --- | --- | --- | --- |
| CCCCCCCCCCCCCC[C@@H](O)[C@H]1OP(=O)(O)OC[C@@H]1N [CP1P, O-cyclic P1P] | 11000 ± 2500 | 140 ± 50 | 9000 ± 2000 | 0 | 42.9 ± 15.52 | 6100 ± 2100 | 0 | 0 | the nerve cells were not killed | 12.06 ± 1.25 | 10600 | 7800 | 7500 | 7550 | 26.3 | 26.3 | 47.9 | 47.5 | – |
| CCCCCCCCCCCCCC[C@@H](O)[C@@H](O)[C@H](COP(=O)(O)O)NC(C)=O [NAPS-1-P, N-acetyl phytosphingosine-1-phosphate] | 5600 ± 2000 | 84 ± 50 | 5600 ± 2000 | – | 40.4 ± 15.52 | 1700 ± 600 | 0 | 0 | the nerve cells were not killed | 11.04 ± 0.78 | 15000 | 15200 | 12200 | 10000 | -4.2 | -4.2 | 15.3 | 30.6 | – |
| CCCCCCCCCCCCC/C=C/[C@@H](O)[C@@H](N)COP(=O)(O)O [S1P, sphingosine-1-phosphate] | 4000 ± 1500 | 140 ± 80 | 4800 ± 2000 | 0 | 36.25 ± 20.15 | 1200 ± 430 | 0 | 0 | – | 11.84 ± 2.25 | 15000 | 13880 | 12700 | 116600 | -4.2 | -4.2 | 11.8 | ~19 | increase in TNF-α, statistical significance (TNF-α; splenocytes of immunized mice): did not show a statistically significant increase; increase in IL-4, statistical significance (IL-4; splenocytes of immunized mice): statistically significant increase; secretion of TNF-α, trend with concentration (Raw264.7 cells): tended to decrease slightly in a concentration-dependent manner |
